Legend:
Format in all cases: cell-based
Pythium zingiberis [1] = assay: Antibacterial test on Pythium zingiberis (Test Example 1), mycelium growth on PDA medium; settings: 500 ppm in PDA medium
Description: A predetermined amount of Compound (1) was dissolved in dimethyl sulfoxide, and the resulting solution was added to a potato dextrose agar medium (PDA medium) so as to have a final concentration of 500 ppm. Separately, an agar piece containing bacteria cut out from the bacterial flora peripheral part of Pythium zingiberis pre-cultured in an additive-free PDA medium was inoculated on the PDA medium containing Compound (1), and cultured at 12° C. or 27° C., and then the mycelium growth inhibition rate was measured by the following Expression 1: Mycelium growth inhibition rate(%)=100−(Diameter of bacterial flora in added medium)/(Diameter of bacterial flora in additive-free medium)×100 Expression 1

Pythium zingiberis [2] = assay: Antibacterial test on Pythium zingiberis (Test Example 2), comparison with comparative compound; settings: 96 h, 500 ppm in PDA medium, cultured at 27° C. for 4 days, read-out: Mycelium growth inhibition rate (%)
Description: A predetermined amount of Compound (1) was dissolved in dimethyl sulfoxide, and the resulting solution was added to a potato dextrose agar medium (PDA medium) so as to have a final concentration of 500 ppm. Separately, an agar piece containing bacteria cut out from the bacterial flora peripheral part of Pythium zingiberis pre-cultured in an additive-free PDA medium was inoculated on the PDA medium containing Compound (1), and cultured at 27° C. for 4 days, and then the mycelium growth inhibition rate was measured by Expression 1. In addition, the test was conducted in the same manner, using N-[7-fluoro-3,4-dihydro-3-oxo-4-(2-propynyl)-2H-1,4-benzoxazin-6-yl]cyclohex-1-ene-1,2-dicarboxamide as a comparative example, in place of Compound (1).

Pythium debaryanum = assay: Antibacterial test on Pythium debaryanum, mycelium growth state on PDA medium; settings: predetermined concentration in PDA medium; cultured at 27° C.
Description: A predetermined amount of Compound (1) was dissolved in dimethyl sulfoxide, and the resulting solution was added to a potato dextrose agar medium (PDA medium) so as to have a final concentration of predetermined concentration. Separately, an agar piece containing bacteria cut out from the bacterial flora peripheral part of Pythium debaryanum pre-cultured in an additive-free PDA medium was inoculated on the PDA medium containing Compound (1), and cultured at 27° C., and then the mycelium growth state was observed.

C#CCN1C(=O)COc2cc(F)c(N3C(=O)C4CC=CCC4C3=O)cc21 (stereo not shown) [Compound (1), N-[7-fluoro-3,4-dihydro-3-oxo-4-(2-propynyl)-2H-1,4-benzoxazin-6-yl]cyclohex-4-ene-1,2-dicarboxamide]
inhibition at 500 ppm (Pythium zingiberis [1]; 24 h, culture temperature 27° C., observation Day 1, read-out: Mycelium growth inhibition rate (%)): 53% | inhibition at 500 ppm (Pythium zingiberis [1]; 96 h, culture temperature 12° C., observation Day 4, read-out: Mycelium growth inhibition rate (%)): 100% | inhibition at 500 ppm (Pythium zingiberis [2]): 50% | effect of controlling Pythium debaryanum (mycelium growth state observed) (Pythium debaryanum): has an effect of controlling Pythium debaryanum
